# Test results taken from patent publication US8097623B2, “Indoles useful in the treatment of inflammation” (Biolipox AB, priority 2005, dated 2012).
# Biological target: T1, mPGES-1 (Homo sapiens, UniProt O14684)
# T1 construct: made in house; host or cells: E. coli
# T1 sequence (O14684 1-152): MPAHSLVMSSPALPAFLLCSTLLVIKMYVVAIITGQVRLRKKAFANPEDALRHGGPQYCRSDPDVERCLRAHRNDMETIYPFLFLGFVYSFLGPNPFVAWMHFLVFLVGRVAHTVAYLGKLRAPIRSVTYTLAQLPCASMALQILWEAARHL
# Test: mPGES-1 biological test: conversion of PGH2 to PGE2, PGE2 quantified by HPLC
# Format: biochemical
# Settings: mPGES-1 expressed in E. coli, membrane fraction; 25 min preincubation with inhibitor, 60 s with PGH2, room temperature; read-out: IC50 (inhibition of mPGES-1)
# Procedure: In the assay mPGES-1 catalyses the reaction where the substrate PGH2 is converted to PGE2. mPGES-1 is expressed in E. coli and the membrane fraction is dissolved in 20 mM NaPi-buffer pH 8.0 and stored at −80° C. In the assay mPGES-1 is dissolved in 0.1M KPi-buffer pH 7.35 with 2.5 mM glutathione. The stop solution consists of H2O/MeCN (7/3), containing FeCl2 (25 mM) and HCl (0.15 M). The assay is performed at room temperature in 96-well plates. Analysis of the amount of PGE2 is performed with reversed phase HPLC (Waters 2795 equipped with a 3.9×150 mm C18 column). The mobile phase consists of H2O/MeCN (7/3), containing TFA (0.056%), and absorbance is measured at 195 nm with a Waters 2487 UV-detector.
# The following is added chronologically to each well: • 1. 100 μL mPGES-1 in KPi-buffer with glutathione. Total protein concentration: 0.02 mg/mL. • 2. 1 μL inhibitor in DMSO. Incubation of the plate at room temperature for 25 minutes. • 3. 4 μL of a 0.25 mM PGH2 solution. Incubation of the plate at room temperature for 60 seconds. • 4. […] stop solution. • 180 μL per sample is analyzed with HPLC.
row,Structure (SMILES),IC50 [µM]
1,"CC(C)Oc1ccc(-n2c(C(=O)O)c(CN3CCCC3C(=O)O)c3cc(-c4ccc(C(C)(C)C)cc4)ccc32)cc1 (centres unmarked) [Example 87, 1-[5-(4-tert-Butylphenyl)-2-carboxy-1-(4-isopropoxyphenyl)indol-3-ylmethyl]-2-carboxypyrrolidinium chloride]",2.3
2,"CC(C)Oc1ccc(-n2c(C(=O)O)c(CCC(=O)O)c3cc(-c4ccc(C(F)(F)F)cn4)ccc32)cc1 [Example 88, 3-(2-Carboxyethyl)-1-(4-isopropoxyphenyl)-5-(5-trifluoromethylpyridin-2-yl)indole-2-carboxylic acid]",5.4
3,"CCOC(=O)c1c(C(=O)O)c2cc(-c3ccc(C(F)(F)F)cc3)ccc2n1-c1ccc(OC2CCCC2)cc1 [Example 67, 1-(4-Cyclopentyloxyphenyl)-5-(4-trifluoromethylphenyl)indole-2,3-dicarboxylic acid 2-ethyl ester]",1.9

# Results, then the molecule that gave them:
row,IC50 [µM],Structure (SMILES)
1,4.3,"CC(C)Oc1ccc(-n2c(C(=O)O)c(C(=O)O)c3cc(Oc4ccc(C(F)(F)F)cn4)ccc32)cc1 [Example 19, 1-(4-Isopropoxyphenyl)-5-(5-trifluoromethylpyridin-2-yloxy)indole-2,3-dicarboxylic acid]"
2,6.9,"CC(=O)NC(Cc1c(C(=O)O)n(-c2ccc(OC3CCCC3)cc2)c2ccc(-c3ccc(C(F)(F)F)cc3)cc12)C(=O)O (centres unmarked) [Example 85, 3-(2-Acetylamino-2-carboxyethyl)-1-(4-cyclopentyloxyphenyl)-5-(4-trifluoromethylphenyl)indole-2-carboxylic acid]"
